Earlier results, collected in patent publication US20030027805A1, “Use of 1,4-androstadienedione as a method of increasing levels of the anabolic/androgenic steroid boldenone in humans” (priority 2000, published 2003).
Where “and” joins values, the source holds several entries; their conditions need not be identical. Identical values can stand only once.

Conditions: for excretion in 17-hydroxy form: urinary, after oral dosing, comparison reported in literature

Row | SMILES | excretion of 17beta-hydroxysteroid metabolites compared with 1-androstenedione (comparison by the same authors with later 1-androstenedione study) | total recovery of 17-OH steroids (human, two subjects, urine, within 24 hours after oral administration of 100 mg, boldenone conjugates plus other 17-beta hydroxysteroids) | urinary recovery of boldenone conjugates (human, two subjects, within 24 hours after oral administration of 100 mg) | excretion in 17-hydroxy form
1 | C[C@]12C=CC(=O)C=C1CC[C@@H]1[C@@H]2CC[C@]2(C)C(=O)CC[C@@H]12 [androstadienedione, 1,4-androstadiene-3,17-dione] | far more | 18.4 % of the given dose and 21.2 % of the given dose | 7.1 % of the initial dosage and 11.1 % of the initial dosage | 
2 | C[C@]12CCC(=O)C=C1CC[C@@H]1[C@@H]2CC[C@]2(C)C(=O)CC[C@@H]12 [androstenedione, reference compound] |  |  |  | only in very small amounts
3 | C[C@]12CC[C@H]3[C@@H](CCC4=CC(=O)CC[C@@]43C)[C@@H]1CC[C@@H]2O [testosterone, reference compound] |  |  |  | only in very small amounts
